Reference: article PMC10018608 (Signal Transduction and Targeted Therapy, 2023)
Read-outs that look alike come from different tables or passages of the source.

Legend:
[1] = in vivo; conditions: male, cynomolgus monkey
[2] = Monkey
[3] = ICR Mice
[4] = Beagle Dog, i.v. (1 mg/kg)
[5] = tested on: SARS-CoV-2 (B.1.351); assay: Plaque reduction assay in VeroE6-TMPRSS2; assay type: cell-based; conditions: Severe acute respiratory syndrome coronavirus 2
[6] = in vivo; conditions: male, ICR, mouse
[7] = tested on: various human proteases; assay: Mammalian proteases activity assay (text summary of the panel); assay type: biochemical; conditions: tested various human proteases
Protocol: (§1) The mammalian proteases activity assay was analyzed using the assay kit (Biovision, USA) in triplicate by following manufacturer’s manual.

[8] = tested on: SARS-CoV-2 Omicron BA.1 (B.1.1.529.1); assay: In vitro antiviral screening, viral genome copies by RT-qPCR in VeroE6-TMPRSS2; assay type: cell-based; conditions: Omicron BA.1, VeroE6-TMPRSS2
[9] = tested on: MERS-CoV; assay: microbe, parasite or virus in culture; assay type: cell-based; conditions: Middle East respiratory syndrome-related coronavirus, VeroE6/TMPRSS2, read-out: EC50 (plaque reduction)
[10] = biological target: T1, Neutrophil Elastase (Homo sapiens, UniProt P08246); assay: Mammalian proteases activity assay; assay type: biochemical
T1 construct: purchased Biovision, USA
T1 sequence (P08246 30-267): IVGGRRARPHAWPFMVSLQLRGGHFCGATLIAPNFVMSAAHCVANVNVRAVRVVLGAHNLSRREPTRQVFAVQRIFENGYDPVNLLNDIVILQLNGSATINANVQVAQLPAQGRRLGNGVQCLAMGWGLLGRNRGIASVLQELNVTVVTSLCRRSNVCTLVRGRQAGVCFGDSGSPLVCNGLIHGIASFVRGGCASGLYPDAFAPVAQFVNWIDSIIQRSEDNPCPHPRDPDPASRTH
Protocol: as §1

[11] = biological target: T2, Human Cathepsin L (Homo sapiens, UniProt P07711); assay: Mammalian proteases activity assay; assay type: biochemical
T2 construct: purchased Biovision, USA
T2 sequence (P07711 114-333): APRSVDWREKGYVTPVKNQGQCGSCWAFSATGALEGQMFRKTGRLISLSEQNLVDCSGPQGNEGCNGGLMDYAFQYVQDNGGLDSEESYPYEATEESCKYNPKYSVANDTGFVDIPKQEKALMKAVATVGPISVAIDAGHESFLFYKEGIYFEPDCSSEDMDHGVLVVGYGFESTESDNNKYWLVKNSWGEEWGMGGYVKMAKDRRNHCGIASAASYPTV
Protocol: as §1

COC[C@@H](NC(=O)C1CCCC(F)(F)C1)C(=O)N[C@H](Cc1ccccc1)C(=O)C(=O)NCc1nccs1 (stereo partly drawn) [SY110, N-((R)-1-(((R)-3,4-dioxo-1-phenyl-4-((thiazol-2-ylmethyl)amino)butan-2-yl)amino)-3-methoxy-1-oxopropan-2-yl)-3,3-difluorocyclohexane-1-carboxamide]
AUC(0-inf) ([1]; iv, 1 mg/kg): 506 ± 60.7 ng·h/mL
AUC(0-t) ([1]; iv, 1 mg/kg): 501 ± 59.9 ng·h/mL
Cmax ([1]; iv, 1 mg/kg): 567 ± 38.2 ng/mL
Tmax ([1]; iv, 1 mg/kg): 4.8 min
clearance ([1]; iv, 1 mg/kg): 33.3 mL/min/kg
half-life ([1]; iv, 1 mg/kg): 43.8 ± 12 min
AUC(0-t) ([1]; po, 10 mg/kg): 1220 ± 56.8 ng·h/mL
Cmax ([1]; po, 10 mg/kg): 242 ± 54.2 ng/mL
Tmax ([1]; po, 10 mg/kg): 140 ± 91.8 min
bioavailability ([1]; po, 10 mg/kg): 24.4%
half-life ([1]; po, 10 mg/kg): 334 ± 63 min
MTRlast ([2]; i.v. (1 mg/kg)): 0.90 ± 0.18 h
MTRlast ([2]; p.o. (10 mg/kg)): 4.71 ± 0.89 h
MTRlast ([3]; i.v. (1 mg/kg)): 0.17 ± 0.03 h
Vzobs ([3]; i.v. (1 mg/kg)): 4.27 ± 2.29 L/kg
MTRlast ([3]; p.o. (150 mg/kg)): 3.62 ± 1.18 h
MTRlast [4]: 0.47 ± 0.05 h
EC50 [5]: 2.84 µM
AUC(0-inf) ([6]; iv, 1 mg/kg): 87.1 ± 7.81 ng·h/mL
AUC(0-t) ([6]; iv, 1 mg/kg): 85.9 ± 7.6 ng·h/mL
Cmax ([6]; iv, 1 mg/kg): 285 ± 16.4 ng/mL
Tmax ([6]; iv, 1 mg/kg): 4.8 min
clearance ([6]; iv, 1 mg/kg): 192 ± 16.4 mL/min/kg
half-life ([6]; iv, 1 mg/kg): 16.2 ± 10.2 min
AUC(0-inf) ([6]; po, 150 mg/kg): 15700 ± 4420 ng·h/mL
AUC(0-t) ([6]; po, 150 mg/kg): 15100 ± 5140 ng·h/mL
Cmax ([6]; po, 150 mg/kg): 4080 ± 636 ng/mL
Tmax ([6]; po, 150 mg/kg): 19.8 ± 8.4 min
half-life ([6]; po, 150 mg/kg): 195 ± 61.8 min
IC50 [7]: > 100 µM
antiviral activity among the six compounds tested [8]: most potent antiviral activity
EC50 [9]: 6.27 µM
Results, acute toxicity study (mice, p.o., 1000 mg/kg, single dose): No mice died
maximal tolerated single dose (text says rats): at least 1.0 g/kg
IC50 [10]: > 100 µM
IC50 [11]: > 100 µM
